According to patent US8614246B2, “Indole derivatives for treating neurodegenerative diseases” (Centre National de la Recherche Scientifique (CNRS), priority 2009, dated 2013):

What was measured:
[1] = Test with ABTS (anti-oxidant capacity, hydroxyl radicals generated by Fenton's reaction); format: biochemical; conditions: 30 minutes at ambient temperature, range 10 nM to 1 mM, read-out: IC50 ± SEM (concentration at which 50% of hydroxyl radicals have been reduced) (converted)
Description: ABTS or 2,2′-azino-bis-(3-ethylbenzthiazoline-6-sulfonic) acid is a coloured indicator of the presence of hydroxyl radicals in solution. The attack of a hydroxyl radical on ABTS generates the formation of an ATBS^+. cation radical (Equation 1). This coloured entity makes the absorbance (Abs) of the solution equal to 450 nm. ABTS+HO. ? ABTS^+. +HO^− Equation 1
During the test, hydroxyl radicals are generated by Fenton's reaction in the presence of iron and hydrogen peroxide (Equation 2) H2O2+Fe^2+ ? HO. +HO^−+Fe^3+ Equation 2
When a radical trap or antioxidant is present in solution, competition with ABTS is set up for reduction of hydroxyl radicals, which reduces the absorbance (Abs) at 450 nm.
The percentage of hydroxyl radicals converted into hydroxyl ions (% conversion) by the compound of interest may be calculated using Formula 1: […]
The anti-oxidant capacity of a compound may then be expressed in the form of IC50 that reflects the concentration at which 50% of hydroxyl radicals have been reduced by the tested compound.
Thus, the compounds to be tested and Trolox® were solubilised in ethanol so as to obtain solutions at 1 mM. We used cascade dilutions to obtain a concentration range varying from 1 mM to 10 nM. 90 μL of a 1:1 water-ethanol mixture was then added onto an ELISA 96-well plate, followed by 15 μL of an aqueous solution of ABTS at 1 mM, 15 μL of an aqueous solution of Fe2SO4 at 0.5 mM, 15 μL of each compound to be tested at different concentrations, and then 15 μl of an aqueous solution of hydrogen peroxide at 100 mM. The mixtures thus obtained were stirred at ambient temperature sheltered from air for 30 minutes, and the value of the absorbance at […] was then measured. The capacity of each compound to reduce hydroxyl radicals is determined by the reduction in absorbance at 450 nm, the control solution being composed of pure ethanol. Therefore, the ABTS test was made in comparison with Trolox®. The same ranges from 10 nm to 1 mM of indoles 1a, 1c, 1g, 1i, 2a, 4c, 2g, 2h and 2i were tested.

[2] = Study of the passage through the blood-brain barrier (HPLC-MS/MS of brain extracts); format: in vivo, mice; conditions: for average concentration of compound 2c in brain extracts: 5-day sub-chronic, ± SEM, n=8
Description: The purpose of this study is to use HPLC coupled with a mass spectrometer to verify the presence of molecule 2c according to the invention […] hydrochloride of molecule 2c (2c/HCl) by oral or intra-peritoneal (IP)pathway.
Animals: Male RjOrl: SWISS mice approximately 5 weeks old and weighing between 20 and 24 g on arrival (from the R Janvier Breeding Centre, France) are kept in the animal house at constant temperature (22±1° C.) and under controlled hygrometry (55±20%) with a 12 hours light/darkness cycle (8 h00-20 h00). The mice were allowed free access to food and drink during the acclimatisation and study period. All experiments took place in accordance with the conditions defined in decree No. 2001-464, May 29, 2001 dealing with experiments on animals.
Treatments: Two 5-day sub-chronic treatments were done (oral or intra-peritoneal pathway): • Treatment by Intra-Peritoneal Pathway (IP):
The solution of hydrochloride of 2c/HCl to be injected is prepared in the carrier (10% Tween20+20% DMSO+70% NaCl at 09% in water) at a concentration of 2.0 g/L. Three groups were formed: • (1) mice that received the carrier through the IP pathway, at 10 mL/kg (group N, n=4), • (2) mice treated with 2c/HCl by IP pathway, at 20 mg/kg and at 10 mL/kg (group R, n=6), and • (3) Control mice that received no treatment (n=2).
The treated mice R4, R5 and R6 and the carrier mice N1, N2, N3 and N4 received the following treatments:
The solution of hydrochloride of 2c to be administered is prepared in the carrier (0.5% Tween80+99.5% carboxy-methyl cellulose at 1%, in 0.9% NaCl in water) at a concentration of 15.0 g/L.
(2) mice treated with 2c/HCl by oral pathway at 150 mg/kg and at 10 mL/kg (Group B, n=6), and
All mice were treated twice per day for 4 days. On the 5th day, they received a final treatment and were euthanized between 3 h00 and 7 h30 after this last treatment, according to the following scheme:
Euthanasia: The mice are anaesthetised by the injection of 0.1 mL of a solution of sodium pentobarbital at 6% and an perfusion is then done on the mice so as to remove all traces of blood from the brain, with an 0.9% NaCl solution that contains heparin (200 μL of heparin choay at 5000 UI/mL in 1 liter of 0.9% NaCl). An perfusion with a minimum of 50 mL of this solution is done on each animal. The mouse brain is removed. The cerebellum, the brain stem and olfactory bulbs are eliminated.
The 3 parts of the brain are frozen in isopentane at −30° C. for one minute, and then kept separately at −80° C. […]
However, only parts 1 of the mice brains were extracted and analysed so as to keep samples for future analyses. […]
Instrumentation and conditions for analysis of compound 2c: Detection and quantification based on the area of the peaks are done using HPLC-MS/MS, in MRM mode. […]

CCCCCCCCCCCCCCCCNCCc1c[nH]c2ccccc12 [Compound 2c, N-(2-(1H-indol-3-yl)ethyl)hexadecan-1-amine]
IC50 [1]: 620 µM | average concentration of compound 2c in brain extracts ([2]; mice, IP, 2c/HCl 20 mg/kg): 14.73 ng/mL | crossing of the BBB in vivo ([2]; mice, after IP and after per os administration of 2c/HCl): capable of crossing the BBB in vivo | average concentration of compound 2c in brain extracts ([2]; mice, per os, 2c/HCl 150 mg/kg twice per day (300 mg/kg/d)): 21.25 ng/mL | brain concentration after per os treatment relative to IP treatment ([2]; per os 300 mg/kg/d vs IP 20 mg/kg/d): about 1.5 times
